Laboratory results from PubChem BioAssay (NCI).
Values joined by “and” are separate entries in the source; they are usually repeats but may differ in a detail not shown here. Equal entries are not always repeated.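 Each compound was tested at five concentrations against cells in 96-well plates for 48 hours. GI50 is the concentration that inhibits growth by half. The concentration for full growth arrest is given as TGI.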

Experiments:
Test in all cases: growth of human tumour cells (NCI), 48 h
[1] = tested on: HCT-116 colon
[2] = tested on: HL-60(TB) leukemia
[3] = tested on: HOP-62 NSCLC
[4] = tested on: HT29 colon
[5] = tested on: MCF7 breast
[6] = tested on: NCI-H23 lung
[7] = tested on: NCI-H522 lung
[8] = tested on: NCI/ADR-RES ovarian
[9] = tested on: SNB-19 CNS
[10] = tested on: HOP-92 NSCLC

Compound | TGI [1] | TGI [2] | TGI [3] | TGI [4] | TGI [5] | TGI [6] | TGI [7] | TGI [8] | TGI [9] | GI50 [1] | GI50 [2] | GI50 [3] | GI50 [10] | TGI [10] | GI50 [4] | GI50 [5] | GI50 [6] | GI50 [7] | GI50 [9] | GI50 [8]
Nc1ncc2ncn(C3CCC(CO)O3)c2n1 (configuration not stated) | > 100 µM | > 100 µM | > 100 µM | > 100 µM | > 100 µM | > 100 µM | > 100 µM | > 100 µM | > 100 µM | – | – | – | – | – | – | – | – | – | – | –
COc1cc2cc(Oc3cccc(NC(=O)Nc4cc(C(F)(F)F)cc(C(F)(F)F)c4)c3)c(C)nc2cc1OC | 1.92 µM | 4.37 µM | 2.88 µM | 3.46 µM | 2.36 µM | 3.55 µM | 2.95 µM | – | 2.16 µM | 0.589 µM | 1.58 µM | 1.35 µM | 1.12 µM | 3.9 µM | 1.52 µM | 0.544 µM | 0.639 µM | 1.25 µM | 0.654 µM | –
C1=CC2CCC1CN2CCC1CNc2ccccc21 (configuration not stated) | > 100 µM | > 100 µM | > 100 µM | > 100 µM | – | > 100 µM | > 100 µM | – | > 100 µM | – | – | – | – | > 100 µM | – | – | – | – | – | –
O=CN1N=C(c2cccc(Nc3ccnc4cc(Cl)ccc34)c2)CC1c1ccc(Cl)cc1 (configuration not stated) | 5.29 µM | 3.81 µM | > 100 µM | 3.65 µM | > 100 µM | > 100 µM | 70.1 µM | 3.94 µM | > 100 µM | 0.597 µM | 1.1 µM | 1.91 µM | – | – | 0.477 µM | 0.81 µM | 2.48 µM | 0.798 µM | 3.48 µM | 0.759 µM
CCCCC1(C(NC(=O)c2ccccc2Cl)c2ccncc2)C(=O)N(c2ccccc2)N(c2ccccc2)C1=O (configuration not stated) | > 100 µM | 40.8 µM | > 100 µM | > 100 µM | – | > 100 µM | > 100 µM | – | > 100 µM | – | – | – | – | > 100 µM | – | – | – | – | – | –
COc1ccc(/C=N/NS(=O)(=O)c2ccccc2)cc1 | > 100 µM | > 100 µM | > 100 µM | > 100 µM | – | > 100 µM | – | – | – | – | – | – | – | > 100 µM | – | – | – | – | – | –
COc1ccc(Br)c(C(=O)N2CCc3ccccc32)c1N | > 100 µM | > 100 µM | > 100 µM | > 100 µM | – | > 100 µM | 36.8 µM | – | > 100 µM | – | – | – | – | > 100 µM | – | – | – | – | – | –
CC1(C)OC(=O)C(=C2CCC(C(=O)Nc3cccc(C(F)(F)F)c3)N2)C(=O)O1 (configuration not stated) | > 100 µM | > 100 µM | > 100 µM | > 100 µM | – | > 100 µM | > 100 µM | – | > 100 µM | – | – | – | – | > 100 µM | – | – | – | – | – | –
O=C(/C=C/c1ccccc1O)c1ccccc1Cl | > 100 µM | 63.8 µM | > 100 µM | > 100 µM | – | > 100 µM | 80.4 µM | – | > 100 µM | – | – | – | – | > 100 µM | – | – | – | – | – | –
CCCCCCCCCCCCCCCC[n+]1ccccc1 | 1.31 µM | 1.21 µM | 2.35 µM and 1.9 µM | 0.765 µM and 1.26 µM | – | 1.43 µM | 0.947 µM | 15.1 µM and 27 µM | 1.9 µM | 0.321 µM | 0.326 µM | 1.05 µM and 0.482 µM | 0.21 µM and 0.335 µM | 0.753 µM and 1.4 µM | 0.199 µM and 0.25 µM | – | 0.295 µM | 0.226 µM | 0.559 µM | 2.56 µM and 4.38 µM
Cc1cc(NN=C(c2ccc(O)cc2)c2ccc(O)cc2)c([N+](=O)[O-])cc1[N+](=O)[O-] | 35.7 µM | 34.8 µM | 18.2 µM | > 100 µM | 20.4 µM | 47.3 µM | 11.4 µM | > 100 µM | 0.935 µM | 3.73 µM | 2.09 µM | 4.11 µM | – | – | 5.98 µM | 2.93 µM | 3.8 µM | 1.08 µM | – | 3.75 µM
COc1cccc(/C=N\NC(=O)C(C)SC(C)C(=O)N/N=C/c2cccc(OC)c2)c1 (configuration not stated) | 34.7 µM | > 100 µM | 33.1 µM | > 100 µM | – | 73.2 µM | 59.1 µM | – | 45.5 µM | – | – | – | – | 38.8 µM | – | – | – | – | – | –
N#CCc1cccc(CC#N)c1Br | > 100 µM | > 100 µM | > 100 µM | > 100 µM | – | > 100 µM | > 100 µM | – | > 100 µM | – | – | – | – | > 100 µM | – | – | – | – | – | –
C[C@H]1CC[P+](C)(c2ccccc2)C1 (some centres not stated) | > 100 µM | > 100 µM | > 100 µM | > 100 µM | – | > 100 µM | > 100 µM | – | > 100 µM | – | – | – | – | – | – | – | – | – | – | –
Cc1cc(C)nc(NS(=O)(=O)c2ccc(Nc3c4ccccc4nc4c(C(=O)NCCN(C)C)cccc34)cc2)n1 | 15.5 µM | 4.82 µM | 14.5 µM | 14.3 µM | – | 21.5 µM | 4.28 µM | – | 10.7 µM | – | – | – | – | – | – | – | – | – | – | –
O=C1OC(=O)C([Se]c2ccccc2)=C1[Se]c1ccccc1 | > 100 µM | > 100 µM | > 100 µM | > 100 µM | – | > 100 µM | > 100 µM | – | > 100 µM | – | – | – | – | > 100 µM | – | – | – | – | – | –
O=C1C(=O)C2(CC1S(=O)(=O)c1ccccc1)c1ccccc1-c1ccccc12 (configuration not stated) | 31.9 µM | 58 µM | 44 µM | 59.7 µM | – | 30.2 µM | 43.1 µM | – | 40.4 µM | – | – | – | – | – | – | – | – | – | – | –
COc1cc(OC)c2c(=O)c3cccc([N+](=O)[O-])c3n(C)c2c1 | – | > 100 µM | – | > 100 µM | – | > 100 µM | > 100 µM | – | > 100 µM | – | – | – | – | – | – | – | – | – | – | –
N#[N+]c1ccc(Nc2ccccc2)cc1 | > 50 mg/L | > 50 mg/L | > 50 mg/L | > 50 mg/L | > 50 mg/L | > 50 mg/L | > 50 mg/L | > 50 mg/L | > 50 mg/L | > 50 mg/L | > 50 mg/L | > 50 mg/L | – | – | > 50 mg/L | > 50 mg/L | > 50 mg/L | > 50 mg/L | > 50 mg/L | > 50 mg/L
Cc1ccc(S(=O)C(C)C(Cl)c2ccccc2)cc1 (configuration not stated) | > 100 µM | – | > 100 µM | > 100 µM | – | > 100 µM | > 100 µM | – | – | – | – | – | – | > 100 µM | – | – | – | – | – | –
Cn1cnnc1[S-].[Au+].c1ccc([PH+](c2ccccc2)c2ccccc2)cc1 | 3.26 µM | 4.44 µM | – | – | – | – | – | – | 3.02 µM | 1.72 µM | 1.48 µM | – | 1.88 µM | 3.31 µM | – | – | – | – | 1.62 µM | –
COc1ccc(-c2cc(/C=C/C(=O)c3ccc(N)cc3)[nH]n2)cc1 | – | 7.71 µM | 7.49 µM | 8.11 µM | 3.84 µM | 13.1 µM | 2.91 µM | 15.5 µM | 11.6 µM | – | 1.43 µM | 2.8 µM | – | – | 2.75 µM | 0.708 µM | 3.22 µM | 1.21 µM | 2.29 µM | 2.86 µM
O=C1CCC(=O)N1Sc1ccccc1 | > 100 µM | > 100 µM | > 100 µM | – | – | > 100 µM | > 100 µM | – | > 100 µM | – | – | – | – | > 100 µM | – | – | – | – | – | –
O=C(O)CSc1n[nH]c(-c2ccco2)n1 | > 100 µM | > 100 µM | > 100 µM | > 100 µM | – | > 100 µM | > 100 µM | – | > 100 µM | – | – | – | – | > 100 µM | – | – | – | – | – | –
CCCCCC[C@H]1C(=O)O[C@H](C)[C@H](NC(=O)c2cccc(NC=O)c2OC)C(=O)O[C@@H](C)[C@@H]1OC(=O)CCC (tested in a mixture with another compound) | 24.3 µM | 19.9 µM | 40.1 µM | 45.6 µM | > 100 µM | 49.2 µM | 34.4 µM | 34.2 µM | – | 9.89 µM | 4.68 µM | 16.9 µM | – | – | 5.98 µM | 33.4 µM | 9.53 µM | 13 µM | – | 8.63 µM
O=[N+]([O-])/C=C/c1ccc(Cl)cc1[N+](=O)[O-] | 3.67 µM | 14.1 µM | 13.4 µM | – | – | 10.6 µM | 3.3 µM | 77.7 µM | 14 µM | 1.86 µM | 3.23 µM | 3.04 µM | 13.2 µM | 27.5 µM | – | – | 2.86 µM | 1.5 µM | 3.32 µM | 3.18 µM
Cc1ccc(OC(=O)N2C/C(=C\c3ccccc3)C(=O)/C(=C/c3ccccc3)C2)cc1 | 5.28 µM | 15.6 µM | 38.7 µM | 35.6 µM | 56 µM | 87.9 µM | 33.8 µM | – | > 100 µM | – | – | – | – | > 100 µM | – | – | – | – | – | –
CN(C)CCN1CCc2c([nH]c3ccccc23)C1c1cccnc1 (configuration not stated) | > 100 µM | > 100 µM | > 100 µM | > 100 µM | – | > 100 µM | > 100 µM | – | > 100 µM | – | – | – | – | > 100 µM | – | – | – | – | – | –
Nc1ccccc1C#Cc1ccccc1C#Cc1cccs1 | 25.4 µM | > 100 µM | 29.3 µM | 49 µM | – | 34.1 µM | 49.1 µM | 30.7 µM | > 100 µM | 12.8 µM | 11 µM | 15.1 µM | 5.87 µM | 22.2 µM | 19.4 µM | – | 17.2 µM | 18.4 µM | 29.9 µM | 16 µM
COc1cc2c3c(n(CCCNCCCNCCCN)c(=O)c2cc1OC)-c1cc2c(cc1C3=O)OCO2 | > 100 µM | > 100 µM | – | > 100 µM | > 100 µM | > 100 µM | > 100 µM | – | > 100 µM | 43 µM | > 100 µM | – | > 100 µM | > 100 µM | 48.6 µM | > 100 µM | 13.5 µM | > 100 µM | > 100 µM | –
